Measured values reported in patent US10759787B2, “Benzofuran derivative, preparation method thereof and use thereof in medicine” (Jiangsu Hengrui Medicine Co., Ltd., priority 2015, dated 2020).

Key:
EZH2-A677G = EZH2-A677G (Homo sapiens (Human), UniProt Q15910, A677G); test: EZH2-A677G mutant enzyme activity assay (HTRF); format: biochemical; conditions: read-out: IC50 for inhibiting the activity of enzyme EZH2-A677G
Procedure: Histone H3 biotin labeling and S-adenosyl methionine were respectively diluted to 50 nM and 50 μM with a kinase buffer, then added to a 384-well plate at 4 μl/well. The test compound was diluted with a kinase buffer (it was diluted from the highest concentration 30 μM in 10 fold concentration gradient to 7 concentration points), then added to the 384-well microtiter plate at 4 μl/well. The plate was incubated at room temperature for 2 hours. Histone H3K27 Me3 monoclonal antibody and Streptavidin-XL665 were diluted to 30 nM and 500 nM by HTRF detection buffer, then added to the 384-well microplate at 10 µl/well and incubated for 1 hour. A well without an EZH2 enzyme and a compound was used as a negative control, and a well with an EZH2 enzyme but without a compound was used as a positive control. […] The compound logarithm concentration vs the inhibition percentage relative to the positive control well was plotted using GraphPad Prism, then the IC50 values were calculated.

Pfeiffer cells = test: In vitro anti-tumor cell growth assay (CellTiter-Glo), Pfeiffer; format: cell-based; conditions: Homo sapiens, 120 h; Pfeiffer cells (A677G mutant), 5 days; read-out: IC50 for inhibiting the growth activity of tumor cells (Pfeiffer) in vitro
Procedure: Test Example 2. Assay for Determining In Vitro Anti-Tumor Cell Growth Activity of the Example Compounds of the Present Invention
This method was used to determinate the inhibitory effect of the compounds of the present invention on the growth activity of tumor cells (Pfeiffer or WSU-DLCL2) in vitro. Pfeiffer cells carry A677G mutant, and WSU-DLCL2 cells carry Y641F mutant.
The lymphoma suspension cell line (Pfeiffer or WSU-DLCL2) was cultured in a RPMI-1640 medium containing 10% inactivated Fetal Bovine Serum, 100 U/mL penicillin, and 100 μg/mL streptomycin, and incubated in an incubator with 5% carbon dioxide at 37° C. under a saturated humidity condition, and passaged every 3-4 days.
A cell sudpension was prepared with a fresh cell medium, added to a 96-well cell culture plate at 8000 cells/well (Pfeiffer) or 2000 cells/well (WSU-DLCL2), and incubated in 5% carbon dioxide at 37° C. incubator overnight. On the day of the experiment, the EZH2 test compounds (final concentration: 20000, 2000, 200, 20, 2, 0.2 nM) were added into the experimental wells for 3 parallel wells per group. A control well with the medium alone but without cells was set up to obtain the background luminescent value. The cell culture plate was incubated in an incubator with 5% carbon dioxide at 37° C. for 5 days.
After the compounds were applied to the cells for 5 days, the cell culture plate was placed at room temperature for 30 minutes, then a CellTiter-Glo reagent equal to the volume of cell culture medium was added to each well. The contents were mixed on a shaker for 10 minutes, and the […] signal values were recorded. The cell growth inhibition rate was calculated, and the formula was: cell growth inhibiton rate=[(negative control control−experimental group)/(negative control group−background luminescent value)]×100%. The IC50 values (half inhibition rate IC50, i.e., a drug concentration that is required for 50% cell growth inhibition rate) were calculated by software from the cell growth inhibiton rate and the corresponding concentration.

Sequence of EZH2-A677G (Q15910 whole entry A677G): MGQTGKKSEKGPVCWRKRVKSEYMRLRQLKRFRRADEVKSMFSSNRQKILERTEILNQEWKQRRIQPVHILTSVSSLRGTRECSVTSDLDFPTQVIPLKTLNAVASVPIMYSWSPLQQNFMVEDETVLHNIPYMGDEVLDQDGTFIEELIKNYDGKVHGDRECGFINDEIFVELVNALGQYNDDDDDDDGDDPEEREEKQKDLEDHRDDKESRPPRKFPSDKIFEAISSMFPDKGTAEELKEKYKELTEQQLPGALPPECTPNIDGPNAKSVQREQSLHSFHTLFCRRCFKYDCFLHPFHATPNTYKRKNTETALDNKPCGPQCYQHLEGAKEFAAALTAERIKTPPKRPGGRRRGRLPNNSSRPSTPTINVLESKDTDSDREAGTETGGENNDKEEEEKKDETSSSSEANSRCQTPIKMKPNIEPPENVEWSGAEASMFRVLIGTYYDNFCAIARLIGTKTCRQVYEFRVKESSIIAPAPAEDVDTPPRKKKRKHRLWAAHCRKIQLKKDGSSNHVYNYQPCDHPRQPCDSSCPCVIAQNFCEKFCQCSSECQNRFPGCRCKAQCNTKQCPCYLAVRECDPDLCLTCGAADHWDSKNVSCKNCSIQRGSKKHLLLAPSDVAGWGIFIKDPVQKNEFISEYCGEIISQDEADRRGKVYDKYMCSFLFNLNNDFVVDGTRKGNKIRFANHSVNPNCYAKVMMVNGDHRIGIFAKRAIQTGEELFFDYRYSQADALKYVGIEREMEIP
Sequence of EZH2-A677G (O75530 whole entry partner): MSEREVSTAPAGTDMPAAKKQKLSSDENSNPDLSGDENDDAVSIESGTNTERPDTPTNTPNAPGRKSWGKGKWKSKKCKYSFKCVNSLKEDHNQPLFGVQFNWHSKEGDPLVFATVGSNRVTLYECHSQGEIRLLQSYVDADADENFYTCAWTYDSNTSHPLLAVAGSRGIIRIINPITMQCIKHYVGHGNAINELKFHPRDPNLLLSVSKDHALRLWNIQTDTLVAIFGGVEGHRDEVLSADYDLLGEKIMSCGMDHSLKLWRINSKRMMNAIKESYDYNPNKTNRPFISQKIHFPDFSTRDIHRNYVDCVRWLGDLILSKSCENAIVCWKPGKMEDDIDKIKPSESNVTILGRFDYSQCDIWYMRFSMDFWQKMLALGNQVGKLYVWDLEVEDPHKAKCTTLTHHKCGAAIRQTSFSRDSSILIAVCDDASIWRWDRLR
Sequence of EZH2-A677G (Q15022 whole entry partner): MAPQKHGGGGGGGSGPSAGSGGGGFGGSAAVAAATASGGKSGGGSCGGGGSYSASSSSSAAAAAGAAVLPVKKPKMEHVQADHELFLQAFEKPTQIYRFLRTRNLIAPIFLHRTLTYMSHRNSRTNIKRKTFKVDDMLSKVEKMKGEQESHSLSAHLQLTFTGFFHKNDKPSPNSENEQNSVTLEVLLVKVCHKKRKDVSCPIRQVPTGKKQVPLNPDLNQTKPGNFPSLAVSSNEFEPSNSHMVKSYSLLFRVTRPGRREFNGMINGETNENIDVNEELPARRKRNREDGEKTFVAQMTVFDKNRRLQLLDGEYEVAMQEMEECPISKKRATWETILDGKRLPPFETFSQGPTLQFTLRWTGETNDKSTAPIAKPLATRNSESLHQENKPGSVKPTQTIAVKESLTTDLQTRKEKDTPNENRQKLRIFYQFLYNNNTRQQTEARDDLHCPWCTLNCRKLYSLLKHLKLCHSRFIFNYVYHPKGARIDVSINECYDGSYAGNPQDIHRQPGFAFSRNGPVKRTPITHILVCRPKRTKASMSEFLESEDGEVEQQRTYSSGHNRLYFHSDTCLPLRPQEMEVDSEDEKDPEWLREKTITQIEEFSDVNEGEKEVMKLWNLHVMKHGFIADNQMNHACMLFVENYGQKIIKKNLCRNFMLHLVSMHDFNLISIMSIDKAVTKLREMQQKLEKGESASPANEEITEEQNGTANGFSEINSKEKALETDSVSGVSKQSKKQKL
Sequence of EZH2-A677G (Q09028 whole entry partner): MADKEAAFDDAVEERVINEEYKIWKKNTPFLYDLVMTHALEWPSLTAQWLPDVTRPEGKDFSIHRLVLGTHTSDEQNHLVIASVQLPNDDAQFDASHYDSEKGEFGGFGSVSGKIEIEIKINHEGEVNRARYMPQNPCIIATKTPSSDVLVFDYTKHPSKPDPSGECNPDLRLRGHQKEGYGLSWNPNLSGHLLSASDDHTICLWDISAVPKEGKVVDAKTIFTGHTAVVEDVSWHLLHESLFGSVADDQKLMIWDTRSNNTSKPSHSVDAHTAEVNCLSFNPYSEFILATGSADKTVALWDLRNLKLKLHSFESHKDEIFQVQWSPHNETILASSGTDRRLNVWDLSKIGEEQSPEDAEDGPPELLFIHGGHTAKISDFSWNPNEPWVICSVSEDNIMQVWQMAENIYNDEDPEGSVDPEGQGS
Sequence of EZH2-A677G (Q6ZN18 whole entry partner): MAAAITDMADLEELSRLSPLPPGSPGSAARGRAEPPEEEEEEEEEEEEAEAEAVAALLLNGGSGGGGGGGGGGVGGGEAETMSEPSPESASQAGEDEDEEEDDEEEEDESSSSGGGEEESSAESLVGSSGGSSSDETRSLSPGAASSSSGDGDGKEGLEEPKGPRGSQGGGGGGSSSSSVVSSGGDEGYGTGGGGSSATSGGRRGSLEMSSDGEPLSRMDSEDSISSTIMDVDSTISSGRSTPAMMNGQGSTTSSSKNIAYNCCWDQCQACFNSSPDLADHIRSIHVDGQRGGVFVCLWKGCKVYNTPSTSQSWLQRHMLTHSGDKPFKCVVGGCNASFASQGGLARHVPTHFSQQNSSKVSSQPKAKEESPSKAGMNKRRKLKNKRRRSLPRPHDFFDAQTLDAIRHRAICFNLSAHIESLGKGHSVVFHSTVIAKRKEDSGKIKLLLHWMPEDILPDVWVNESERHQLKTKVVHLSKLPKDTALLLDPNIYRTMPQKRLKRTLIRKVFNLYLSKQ

Row | Compound | IC50 (EZH2-A677G) [nM] | IC50 (Pfeiffer cells) [nM]
1 | CCN(c1cc2oc(CN3CCCCC3)cc2c(C(=O)NCc2c(OC)cc(C)[nH]c2=O)c1C)C1CCOCC1 [Example 4, 6-(Ethyl(tetrahydro-2H-pyran-4-yl)amino)-N-((4-methoxy-6-methyl-2-oxo-1,2-dihydropyridin-3-yl)methyl)-5-methyl-2-(piperidin-1-ylmethyl)benzofuran-4-carboxamide] | 14 | 19
2 | CCc1c(N(CC)C2CCOCC2)cc2oc(CN3CCN(C(C)C)CC3)cc2c1C(=O)NCc1c(OC)cc(C)[nH]c1=O [Example 5, 5-Ethyl-6-(ethyl(tetrahydro-2H-pyran-4-yl)amino)-2-((4-isopropylpiperazin-1-yl)methyl)-N-((4-methoxy-6-methyl-2-oxo-1,2-dihydropyridin-3-yl)methyl)benzofuran-4-carboxamide] | 1.2 | 19
3 | CCc1c(N(CC)C2CCOCC2)cc2oc(CN3CCOCC3)cc2c1C(=O)NCc1c(OC)cc(C)[nH]c1=O [Example 6, 5-Ethyl-6-(ethyl(tetrahydro-2H-pyran-4-yl)amino)-N-((4-methoxy-6-methyl-2-oxo-1,2-dihydropyridin-3-yl)methyl)-2-(morpholinomethyl)benzofuran-4-carboxamide] | 7.8 | 3
4 | CCc1c(N(CC)C2CCOCC2)cc2oc(CN3CCC(F)(F)CC3)cc2c1C(=O)NCc1c(OC)cc(C)[nH]c1=O [Example 7, 2-((4,4-Difluoropiperidin-1-yl)methyl)-5-ethyl-6-(ethyl(tetrahydro-2H-pyran-4-yl)amino)-N-((4-methoxy-6-methyl-2-oxo-1,2-dihydropyridin-3-yl)methyl)benzofuran-4-carboxamide] | 3.5 | 11
5 | CCc1c(N(CC)C2CCOCC2)cc2oc(CN3CCCC3)cc2c1C(=O)NCc1c(OC)cc(C)[nH]c1=O [Example 8, 5-Ethyl-6-(ethyl(tetrahydro-2H-pyran-4-yl)amino)-N-((4-methoxy-6-methyl-2-oxo-1,2-dihydropyridin-3-yl)methyl)-2-(pyrrolidin-1-ylmethyl)benzofuran-4-carboxamide] | 6.2 | 12
6 | CCc1c(N(CC)C2CCOCC2)cc2oc(C3CCN(C(C)C)CC3)cc2c1C(=O)NCc1c(OC)cc(C)[nH]c1=O [Example 10, 5-Ethyl-6-(ethyl(tetrahydro-2H-pyran-4-yl)amino)-2-(1-isopropylpiperidin-4-yl)-N-((4-methoxy-6-methyl-2-oxo-1,2-dihydropyridin-3-yl)methyl)benzofuran-4-carboxamide] | 1.7 | 5
7 | CCc1c(N(CC)C2CCOCC2)cc2oc(CN3CCN(CC(C)(C)O)CC3)cc2c1C(=O)NCc1c(C)cc(C)[nH]c1=O [Example 11, N-((4,6-Dimethyl-2-oxo-1,2-dihydropyridin-3-yl)methyl)-5-ethyl-6-(ethyl(tetrahydro-2H-pyran-4-yl)amino)-2-((4-(2-hydroxy-2-methylpropyl)piperazin-1-yl)methyl)benzofuran-4-carboxamide] | 5.6 | 22
8 | CCc1c(N(CC)C2CCOCC2)cc2oc(CN3CCN(C)CC3)cc2c1C(=O)NCc1c(OC)cc(C)[nH]c1=O [Example 12, 5-Ethyl-6-(ethyl(tetrahydro-2H-pyran-4-yl)amino)-N-((4-methoxy-6-methyl-2-oxo-1,2-dihydropyridin-3-yl)methyl)-2-((4-methylpiperazin-1-yl)methyl)benzofuran-4-carboxamide] | 10 | 22
9 | CCc1c(N(CC)C2CCOCC2)cc2oc(CN(C)C)cc2c1C(=O)NCc1c(OC)cc(C)[nH]c1=O [Example 13, 2-((Dimethylamino)methyl)-5-ethyl-6-(ethyl(tetrahydro-2H-pyran-4-yl)amino)-N-((4-methoxy-6-methyl-2-oxo-1,2-dihydropyridin-3-yl)methyl)benzofuran-4-carboxamide] | 2.9 | 9
10 | CCc1c(N(CC)C2CCOCC2)cc2oc(C3CCCC3)cc2c1C(=O)NCc1c(C)cc(C)[nH]c1=O [Example 14, 2-Cyclopentyl-N-((4,6-dimethyl-2-oxo-1,2-dihydropyridin-3-yl)methyl)-5-ethyl-6-(ethyl(tetrahydro-2H-pyran-4-yl)amino)benzofuran-4-carboxamide] | 9.6 | –
11 | CCN(c1cc2oc(C3CCN(C)CC3)cc2c(C(=O)NCc2c(C)cc(C)[nH]c2=O)c1C)C1CCOCC1 [Example 15, N-((4,6-Dimethyl-2-oxo-1,2-dihydropyridin-3-yl)methyl)-6-(ethyl(tetrahydro-2H-pyran-4-yl)amino)-5-methyl-2-(1-methylpiperidin-4-yl)benzofuran-4-carboxamide] | 16 | 13
12 | CCN(c1cc2oc(C3=CCN(C)CC3)cc2c(C(=O)NCc2c(C)cc(C)[nH]c2=O)c1C)C1CCOCC1 [Example 16, N-((4,6-Dimethyl-2-oxo-1,2-dihydropyridin-3-yl)methyl)-6-(ethyl(tetrahydro-2H-pyran-4-yl)amino)-5-methyl-2-(1-methyl-1,2,3,6-tetrahydropyridin-4-yl)benzofuran-4-carboxamide] | 31 | 18
13 | CCc1c(N(CC)C2CCOCC2)cc2oc(C3CCN(C)CC3)cc2c1C(=O)NCc1c(OC)cc(C)[nH]c1=O [Example 17, 5-Ethyl-6-(ethyl(tetrahydro-2H-pyran-4-yl)amino)-N-((4-methoxy-6-methyl-2-oxo-1,2-dihydropyridin-3-yl)methyl)-2-(1-methylpiperidin-4-yl)benzofuran-4-carboxamide] | 9.9 | 9
14 | CCN(c1cc2occc2c(C(=O)NCc2c(OC)cc(C)[nH]c2=O)c1Cl)C1CCOCC1 [Example 22, 5-Chloro-6-(ethyl(tetrahydro-2H-pyran-4-yl)amino)-N-((4-methoxy-6-methyl-2-oxo-1,2-dihydropyridin-3-yl)methyl)benzofuran-4-carboxamide] | 6.5 | –
15 | CCc1c(N(CC)C2CCOCC2)cc2oc(F)cc2c1C(=O)NCc1c(OC)cc(C)[nH]c1=O [Example 27, 5-Ethyl-6-(ethyl(tetrahydro-2H-pyran-4-yl)amino)-2-fluoro-N-((4-methoxy-6-methyl-2-oxo-1,2-dihydropyridin-3-yl)methyl)benzofuran-4-carboxamide] | 3.5 | 4
16 | CCc1c(N(CC2CC2)C2CCOCC2)cc2oc(C3CC3)cc2c1C(=O)NCc1c(OC)cc(C)[nH]c1=O [Example 28, 2-Cyclopropyl-6-((cyclopropylmethyl)(tetrahydro-2H-pyran-4-yl)amino)-5-ethyl-N-((4-methoxy-6-methyl-2-oxo-1,2-dihydropyridin-3-yl)methyl)benzofuran-4-carboxamide] | 6.8 | 78
17 | CCN(c1cc2oc(C(F)(F)F)cc2c(C(=O)NCc2c(OC)cc(C)[nH]c2=O)c1C)C1CCOCC1 [Example 29, 6-(Ethyl(tetrahydro-2H-pyran-4-yl)amino)-N-((4-methoxy-6-methyl-2-oxo-1,2-dihydropyridin-3-yl)methyl)-5-methyl-2-(trifluoromethyl)benzofuran-4-carboxamide] | 2.7 | 17
18 | CCc1c(N(CC2CC2)C2CCN(CC(F)(F)F)CC2)cc2occc2c1C(=O)NCc1c(OC)cc(C)[nH]c1=O [Example 34, 6-((Cyclopropylmethyl)(1-(2,2,2-trifluoroethyl)piperidin-4-yl)amino)-5-ethyl-N-((4-methoxy-6-methyl-2-oxo-1,2-dihydropyridin-3-yl)methyl)benzofuran-4-carboxamide] | 14 | –
